From ChEMBL document CHEMBL1129892, “Tetracyclic analogues of [+]-S 14297: Synthesis and determination of affinity and selectivity at cloned human dopamine D3 vs D2 receptors” (Bioorg Med Chem Lett, 1997)
pKi: −log10 of the molar value.

Tests used:
D(2) dopamine receptor = D(2) dopamine receptor (Homo sapiens, UniProt P14416); format: cell membranes, CHO
D(3) dopamine receptor = D(3) dopamine receptor (Homo sapiens, UniProt P35462); experiment: biochemical
Chain of D(3) dopamine receptor (P35462 whole entry): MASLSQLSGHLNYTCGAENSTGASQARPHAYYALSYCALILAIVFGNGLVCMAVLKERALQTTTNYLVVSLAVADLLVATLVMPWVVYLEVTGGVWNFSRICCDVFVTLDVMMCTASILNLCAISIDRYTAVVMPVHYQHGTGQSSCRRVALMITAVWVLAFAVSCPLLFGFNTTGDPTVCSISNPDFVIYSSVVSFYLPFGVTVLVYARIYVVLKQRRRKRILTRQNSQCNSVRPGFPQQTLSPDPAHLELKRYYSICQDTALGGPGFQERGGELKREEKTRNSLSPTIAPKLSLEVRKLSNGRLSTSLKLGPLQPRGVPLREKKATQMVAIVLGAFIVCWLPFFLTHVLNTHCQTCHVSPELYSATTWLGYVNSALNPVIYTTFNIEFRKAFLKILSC
Description: Inhibition of [125 I]iodosulpiride binding to human Dopamine receptor D3 expressed in CHO cell membranes

Chain of D(2) dopamine receptor (P14416 whole entry): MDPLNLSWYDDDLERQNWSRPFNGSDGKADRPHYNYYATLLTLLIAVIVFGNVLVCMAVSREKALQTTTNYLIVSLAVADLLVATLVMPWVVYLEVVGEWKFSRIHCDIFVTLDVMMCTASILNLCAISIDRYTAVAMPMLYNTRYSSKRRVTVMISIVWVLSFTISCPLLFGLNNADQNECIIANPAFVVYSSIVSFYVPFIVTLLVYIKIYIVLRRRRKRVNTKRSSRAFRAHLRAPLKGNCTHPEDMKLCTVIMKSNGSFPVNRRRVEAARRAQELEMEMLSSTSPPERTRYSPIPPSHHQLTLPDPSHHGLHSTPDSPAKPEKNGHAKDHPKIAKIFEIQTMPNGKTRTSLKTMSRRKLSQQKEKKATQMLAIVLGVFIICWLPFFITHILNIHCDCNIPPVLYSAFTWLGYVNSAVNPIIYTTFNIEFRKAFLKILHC

pKi (D(2) dopamine receptor)	Structure (SMILES)	pKi (D(3) dopamine receptor)
5.30	CC(C)CN1CCO[C@@H]2c3cc4c(cc3CC[C@H]21)CCO4	6.90
4.90	CCCN1CCO[C@@H]2c3cc4c(cc3OC[C@H]21)CCO4	–
5.60	c1c2c(cc3c1CC[C@@H]1[C@@H]3OCCN1CC1CC1)OCC2	7.20
< 5.00	CCCN1CCO[C@H]2c3cc4c(cc3CC[C@H]21)CCO4	–
< 4.00	CCCN1CCO[C@H]2c3cc4c(cc3OC[C@H]21)CCO4	–
< 5.00	c1ccc(CN2CCO[C@@H]3c4cc5c(cc4CC[C@H]32)CCO5)cc1	< 5.00
< 5.00	c1ccc(CCN2CCO[C@@H]3c4cc5c(cc4CC[C@H]32)CCO5)cc1	< 5.00

The remaining lines, values behind:

Structure (SMILES)	pKi (D(2) dopamine receptor)	pKi (D(3) dopamine receptor)
CCCN(CCC)C1CCc2cc3c(cc2C1)OCC3 (stereo not given)	6.60	7.90
CCCN1CCO[C@@H]2c3cc4c(cc3CC[C@H]21)CCO4	6.40	–
CCCN1CCC[C@@H]2c3cc4c(cc3CC[C@H]21)CCO4	6.30	7.60
c1c2c(cc3c1CC[C@H]1NCCO[C@H]31)OCC2	6.00	6.70
CN1CCO[C@@H]2c3cc4c(cc3CC[C@H]21)CCO4	6.40	7.10
